Test results: patent US5696151A, “Compounds useful for the inhibition of the replication of HIV-1 and HIV-1 mutants” (priority 1995, dated 1997)
Converted amounts (≈) assume the structure as drawn.

Columns and labels:
Type in all cases: cell-based
HIV-1(IIIB) = assay: Inhibition of HIV-1 induced syncytium formation in CEM cells, wild type; details: Human immunodeficiency virus 1, IIIB, CCRF-CEM, 96 h, Table 2B, WT = HIV-1(IIIB), day 4, averages of 2 to 3 independent experiments, read-out: Antiviral Activity of Comparative Compounds EC50, WT
From the text: (§1) CEM cells were obtained from the American Tissue Cell Culture Collection (Rockville, Md.). HIV-1(IIIB) was originally obtained from the culture supernatant of persistently HIV-1-infected H9 cells and was provided by R. C. Gallo and M. Popovic (National Cancer Institute, National Institutes of Health, Bethesda, Md.). […] 67: 5353-5359 (1993); HIV-1/Lys-138 ("Lys-138") was selected for resistance against TSAO-m^3T as described in Balzarini et al, Virology 192: 246-253 (1993) and Balzarini et al, Proc. Nat. Acad. Sci. USA 90: 6952-6956 (1993); HIV-1/181-Cys ("181-Cys") was selected for resistance against pyridinone L-697,661 as described in Balzarini et al, Virology 192: 246-253 (1993); and HIV-1/188-His ("188-His") was selected for resistance against HEPT as described in Balzarini et al, Mol. Pharmocol. 44: 694-701 (1993). 188-His was then further converted to HIV-1/188-Leu "188-Leu") upon further passage in cell culture in the absence of the HEPT.
(§2) CEM cells were suspended at ≈300,000 cells per ml of culture medium and infected with approximately 100 CCID50 (CCID50 being the 50% cell culture infective dose) of HIV-1(IIIB) or one of the HIV-1 RT mutant strains described above. Then 100 μl of the infected cell suspensions was added to 200 μl microtiter plate wells containing 100 μl of appropriate serial (5-fold) dilutions of the test compounds. The inhibitory effect of the test compounds on HIV-1 induced syncytium formation in CEM cells was examined microscopically on day 4 post infection.

HIV-1/100-Ile = assay: Inhibition of HIV-1 induced syncytium formation in CEM cells, RT mutant 100-Ile; details: Human immunodeficiency virus 1, CCRF-CEM, 96 h, Table 2B, day 4, averages of 2 to 3 independent experiments, read-out: Antiviral Activity of Comparative Compounds EC50, 100-Ile
From the text: as §1, §2

HIV-1/106-Ala = assay: Inhibition of HIV-1 induced syncytium formation in CEM cells, RT mutant 106-Ala; details: Human immunodeficiency virus 1, CCRF-CEM, 96 h, Table 2B, day 4, averages of 2 to 3 independent experiments, read-out: Antiviral Activity of Comparative Compounds EC50, 106-Ala
From the text: as §1, §2

HIV-1/Lys-138 = assay: Inhibition of HIV-1 induced syncytium formation in CEM cells, RT mutant 138-Lys; details: Human immunodeficiency virus 1, CCRF-CEM, 96 h, Table 2B, day 4, averages of 2 to 3 independent experiments, read-out: Antiviral Activity of Comparative Compounds EC50, 138-Lys
From the text: as §1, §2

HIV-1/181-Cys = assay: Inhibition of HIV-1 induced syncytium formation in CEM cells, RT mutant 181-Cys; details: Human immunodeficiency virus 1, CCRF-CEM, 96 h, Table 2B, day 4, averages of 2 to 3 independent experiments, read-out: Antiviral Activity of Comparative Compounds EC50, 181-Cys
From the text: as §1, §2

in vitro = details: human, cem cells, CC50 (50% cytostatic concentration), Table 2B; CEM cell proliferation; averages of 2 to 3 independent experiments
From the text: as §1
^b 50% cytostatic concentration (i.e., compound concentration require
to inhibit CEM cell proliferation by 50%)

SMILES	EC50 (HIV-1(IIIB)) [µg/mL]	EC50 (HIV-1/100-Ile) [µg/mL]	EC50 (HIV-1/106-Ala) [µg/mL]	EC50 (HIV-1/Lys-138) [µg/mL]	EC50 (HIV-1/181-Cys) [µg/mL]	CC50 (in vitro) [µg/mL]
Cc1occc1C(=O)Nc1ccc(Cl)c(C(=O)OC(C)C)c1 [Compound 48]	0.45 (≈ 1.4 µM)	6.5 (≈ 20.2 µM)	6.5 (≈ 20.2 µM)	3.5 (≈ 10.9 µM)	6 (≈ 18.6 µM)	3.8 (≈ 11.8 µM)
Cc1occc1C(=S)Nc1ccc(Cl)c(C(=O)OC(C)C)c1 [Compound 49]	0.007 (≈ 0.0207 µM)	0.6 (≈ 1.78 µM)	0.6 (≈ 1.78 µM)	0.6 (≈ 1.78 µM)	0.2 (≈ 0.592 µM)	5.2 (≈ 15.4 µM)
C=C(C)COC(=O)c1cc(NC(=O)c2ccoc2C)ccc1Cl [Compound 50]	0.15 (≈ 0.449 µM)	5 (≈ 15 µM)	1 (≈ 3 µM)	1 (≈ 3 µM)	1.9 (≈ 5.69 µM)	3.7 (≈ 11.1 µM)
C=C(C)COC(=O)c1cc(NC(=S)c2ccoc2C)ccc1Cl [Compound 51]	0.006 (≈ 0.0172 µM)	0.8 (≈ 2.29 µM)	0.03 (≈ 0.0858 µM)	0.03 (≈ 0.0858 µM)	0.1 (≈ 0.286 µM)	6.7 (≈ 19.2 µM)
Cc1occc1C(=O)Nc1ccc(Cl)c(COC(C)(C)C)c1 [Compound 52]	0.7 (≈ 2.18 µM)	8.5 (≈ 26.4 µM)	5.5 (≈ 17.1 µM)	4 (≈ 12.4 µM)	≥ 10	6.2 (≈ 19.3 µM)
Cc1occc1C(=S)Nc1ccc(Cl)c(COC(C)(C)C)c1 [Compound 53]	0.03 (≈ 0.0888 µM)	0.85 (≈ 2.52 µM)	0.29 (≈ 0.858 µM)	0.08 (≈ 0.237 µM)	0.55 (≈ 1.63 µM)	18 (≈ 53.3 µM)
Cc1occc1C(=O)Nc1ccc(Cl)c(C(=O)OC(C)C2CC2)c1 (stereo not drawn) [Compound 54]	0.6 (≈ 1.73 µM)	> 10	5 (≈ 14.4 µM)	> 10	1 (≈ 2.88 µM)	44 (≈ 127 µM)
Cc1occc1C(=S)Nc1ccc(Cl)c(C(=O)OC(C)C2CC2)c1 (stereo not drawn) [Compound 55]	0.009 (≈ 0.0247 µM)	0.65 (≈ 1.79 µM)	0.08 (≈ 0.22 µM)	0.18 (≈ 0.495 µM)	0.11 (≈ 0.302 µM)	17 (≈ 46.7 µM)
COc1ccc(NC(=O)c2ccoc2C)cc1CC(=O)OC(C)C [Compound 56]	0.7 (≈ 2.11 µM)	> 10	6.5 (≈ 19.6 µM)	≥ 10	> 10	52 (≈ 157 µM)
COc1ccc(NC(=S)c2ccoc2C)cc1CC(=O)OC(C)C [Compound 57]	0.009 (≈ 0.0259 µM)	1.3 (≈ 3.74 µM)	0.2 (≈ 0.576 µM)	0.08 (≈ 0.23 µM)	0.5 (≈ 1.44 µM)	> 100
Cc1sccc1C(=O)Nc1ccc(Cl)c(C=NOC(C)(C)C)c1 [Compound 60]	0.23 (≈ 0.656 µM)	4.5 (≈ 12.8 µM)	1.6 (≈ 4.56 µM)	1.57 (≈ 4.47 µM)	3 (≈ 8.55 µM)	14 (≈ 39.9 µM)
Cc1sccc1C(=S)Nc1ccc(Cl)c(C=NOC(C)(C)C)c1 [Compound 61]	0.01 (≈ 0.0273 µM)	0.2 (≈ 0.545 µM)	0.2 (≈ 0.545 µM)	0.05 (≈ 0.136 µM)	0.2 (≈ 0.545 µM)	12 (≈ 32.7 µM)
CC(C)OC(=O)c1cc(NC(=O)c2ccccc2)ccc1Cl [Compound 62]	0.4 (≈ 1.26 µM)	3.5 (≈ 11 µM)	5 (≈ 15.7 µM)	5 (≈ 15.7 µM)	5.5 (≈ 17.3 µM)	6.2 (≈ 19.5 µM)
CC(C)OC(=O)c1cc(NC(=S)c2ccccc2)ccc1Cl [Compound 63]	0.05 (≈ 0.15 µM)	4.5 (≈ 13.5 µM)	5 (≈ 15 µM)	2.2 (≈ 6.59 µM)	5 (≈ 15 µM)	4.3 (≈ 12.9 µM)
O=C(OC1CCCCC1)c1cc(NC(=S)c2ccccc2F)ccc1Cl [Compound 65]	0.04 (≈ 0.102 µM)	0.3 (≈ 0.766 µM)	0.26 (≈ 0.663 µM)	0.09 (≈ 0.23 µM)	0.25 (≈ 0.638 µM)	19 (≈ 48.5 µM)
CCC(CC)OC(=O)c1cc(NC(=O)c2ccccc2N)ccc1Cl [Compound 66]	0.6 (≈ 1.66 µM)	> 10	9 (≈ 24.9 µM)	> 10	≥ 10	25 (≈ 69.3 µM)
CCC(CC)OC(=O)c1cc(NC(=S)c2ccccc2N)ccc1Cl [Compound 67]	0.75 (≈ 1.99 µM)	≥ 10	≥ 10	5.5 (≈ 14.6 µM)	> 10	29 (≈ 76.9 µM)

SMILES	EC50 (HIV-1(IIIB)) [µg/mL]	EC50 (HIV-1/100-Ile) [µg/mL]	EC50 (HIV-1/106-Ala) [µg/mL]	EC50 (HIV-1/Lys-138) [µg/mL]	EC50 (HIV-1/181-Cys) [µg/mL]	CC50 (in vitro) [µg/mL]
COc1ccccc1C(=O)Nc1ccc(Cl)c(C(=O)OC2CCCC2)c1 [Compound 68]	0.45 (≈ 1.2 µM)	5 (≈ 13.4 µM)	8.5 (≈ 22.7 µM)	5.5 (≈ 14.7 µM)	8.5 (≈ 22.7 µM)	> 100
COc1ccccc1C(=S)Nc1ccc(Cl)c(C(=O)OC2CCCC2)c1 [Compound 69]	0.04 (≈ 0.103 µM)	0.65 (≈ 1.67 µM)	0.65 (≈ 1.67 µM)	0.55 (≈ 1.41 µM)	3.5 (≈ 8.98 µM)	10 (≈ 25.6 µM)
Cc1ccccc1C(=O)Nc1ccc(Cl)c(C(=O)OC2CCCCC2)c1 [Compound 70]	0.19 (≈ 0.511 µM)	2.5 (≈ 6.72 µM)	6.5 (≈ 17.5 µM)	5.5 (≈ 14.8 µM)	2.5 (≈ 6.72 µM)	5.2 (≈ 14 µM)
Cc1ccccc1C(=S)Nc1ccc(Cl)c(C(=O)OC2CCCCC2)c1 [Compound 71]	0.049 (≈ 0.126 µM)	0.6 (≈ 1.55 µM)	3 (≈ 7.73 µM)	3 (≈ 7.73 µM)	1.6 (≈ 4.12 µM)	4 (≈ 10.3 µM)
CON=Cc1cc(NC(=S)c2ccoc2C)ccc1Cl [Compound 72]	0.03 (≈ 0.0972 µM)	2.3 (≈ 7.45 µM)	0.5 (≈ 1.62 µM)	0.085 (≈ 0.275 µM)	1.6 (≈ 5.18 µM)	24 (≈ 77.7 µM)
C=CCOc1cc(NC(=S)c2ccoc2C)ccc1OC [Compound 73]	0.017 (≈ 0.056 µM)	2.9 (≈ 9.56 µM)	0.8 (≈ 2.64 µM)	0.09 (≈ 0.297 µM)	0.85 (≈ 2.8 µM)	> 100
C=CCOc1cc(NC(=S)c2ccoc2C)ccc1C#N [Compound 74]	0.015 (≈ 0.0503 µM)	6 (≈ 20.1 µM)	0.45 (≈ 1.51 µM)	0.09 (≈ 0.302 µM)	3 (≈ 10.1 µM)	> 100
CCOC(=O)c1cc(NC(=S)c2ccoc2C)ccc1C [Compound 75]	0.009 (≈ 0.0297 µM)	0.9 (≈ 2.97 µM)	0.7 (≈ 2.31 µM)	0.35 (≈ 1.15 µM)	0.6 (≈ 1.98 µM)	16 (≈ 52.7 µM)
C=CCOc1cc(NC(=S)c2sccc2C)ccc1Cl [Compound 76]	0.035 (≈ 0.108 µM)	2.7 (≈ 8.34 µM)	≥ 1	0.73 (≈ 2.25 µM)	> 1	5.3 (≈ 16.4 µM)
C=CCOc1cc(NC(=S)c2sccc2C)ccc1C#N [Compound 77]	0.045 (≈ 0.143 µM)	≥ 1	≥ 1	0.55 (≈ 1.75 µM)	> 1	3.6 (≈ 11.4 µM)
C=CCOc1cc(NC(=S)c2sccc2C)ccc1OC [Compound 78]	0.045 (≈ 0.141 µM)	5 (≈ 15.7 µM)	2 (≈ 6.26 µM)	1.13 (≈ 3.54 µM)	3.3 (≈ 10.3 µM)	7.1 (≈ 22.2 µM)
O=C(OC1CCCCC1)c1cc(NC(=S)c2ccsc2)ccc1Cl [Compound 79]	0.03 (≈ 0.079 µM)	0.85 (≈ 2.24 µM)	0.07 (≈ 0.184 µM)	0.07 (≈ 0.184 µM)	0.08 (≈ 0.211 µM)	4.1 (≈ 10.8 µM)
O=C(OC1CCCCC1)c1cc(NC(=S)c2ccccc2Cl)ccc1Cl [Compound 80]	0.5 (≈ 1.22 µM)	4 (≈ 9.8 µM)	5 (≈ 12.2 µM)	4 (≈ 9.8 µM)	3 (≈ 7.35 µM)	8.3 (≈ 20.3 µM)
COc1ccccc1C(=S)Nc1ccc(Cl)c(C(=O)OC2CCCCC2)c1 [Compound 81]	0.04 (≈ 0.099 µM)	0.7 (≈ 1.73 µM)	0.65 (≈ 1.61 µM)	0.6 (≈ 1.49 µM)	4.5 (≈ 11.1 µM)	12 (≈ 29.7 µM)
O=C(OC1CCCCC1)c1cc(NC(=S)c2ccccc2)ccc1Cl [Compound 82]	0.03 (≈ 0.0802 µM)	2 (≈ 5.35 µM)	1 (≈ 2.67 µM)	0.55 (≈ 1.47 µM)	0.8 (≈ 2.14 µM)	5.2 (≈ 13.9 µM)
Cc1occc1C(=S)Nc1ccc(Cl)c(C(=O)OC2CCCCC2)c1 [Compound 83]	0.004 (≈ 0.0106 µM)	0.17 (≈ 0.45 µM)	0.057 (≈ 0.151 µM)	0.035 (≈ 0.0926 µM)	0.07 (≈ 0.185 µM)	9.7 (≈ 25.7 µM)
CC(C)OC(=O)c1cc(NC(=S)c2ccccc2N)ccc1Cl [Compound 85]	0.5 (≈ 1.43 µM)	6 (≈ 17.2 µM)	7.5 (≈ 21.5 µM)	5.5 (≈ 15.8 µM)	5.3 (≈ 15.2 µM)	6.7 (≈ 19.2 µM)
